# Source: patent publication US9163015B2, “Pyrazolopyridine, pyrarolopyrazine, pyrazolopyrimidine, pyrazolothiophene and pyrazolothiazole compounds as MGLUR4 allosteric potentiators, compositions, and methods of treating neurological dysfunction” (Vanderbilt University, priority 2010, dated 2015)
# Target: human mGluR4 (Homo sapiens (Human), UniProt Q14833)
# Assay: mGluR4 potentiation assay, CHO cells transfected with human mGluR4, Ca2+-sensitive fluorescent dye, EC20 agonist
# Format: cell-based
# Details: potentiation of mGluR4; table does not state human or rat receptor
# Experimental: The disclosed compounds and compositions can be evaluated for their ability to act as a potentiator of metabotropic glutamate receptor activity, in particular mGluR4 activity, by any suitable known methodology known in the art. For example, Chinese Hamster Ovary (CHO) cells transfected with human mGluR4 or HEK cells co-transfected with rat mGluR4 and the G-protein regulated Inwardly Rectifying Potassium channel (GIRK) were plated in clear bottom assay plates for assay in a Hamamatsu FDSS Fluorometric Plate Reader. The cells were loaded with either a Ca2+-sensitive fluorescent dye or the thallium responsive dye and the plates were washed and placed into a suitable kinetic plate reader. For human mGluR4 assays, a fluorescence baseline was established for 3-5 seconds, the disclosed compounds were then added to the cells, and the response in cells was measured. Approximately two and a half minutes later, a concentration of mGluR4 orthosteric agonist (e.g. glutamate or L-AP4) eliciting approximately 20% (EC20) of the maximal agonist response was added to the cells, and the response was measured. Two minutes later, a concentration of mGluR4 agonist (e.g. glutamate or L-AP4) eliciting 80% (EC80) of the maximal agonist response was added to the cells, and the response was measured. For rat mGluR4/GIRK experiments, a baseline was established for approximately five seconds, disclosed compounds were added, and either an EC20 or EC80 concentration of agonist was added approximately two and one half minutes later.
# The above described assay operated in two modes. In the first mode, a range of concentrations of the disclosed compounds are added to cells, followed by a single fixed concentration of agonist. If the compound acts as a potentiatior, an EC50 value for potentiation and a maximum extent of potentiation by the compound at this concentration of agonist is determined by non-linear curve fitting. If the compound acts as a noncompetitive antagonist, an IC50 value is determined by non-linear curve fitting. In the second mode, several fixed concentrations of the disclosed compounds are added to various wells on a plate, followed by a range in concentrations of agonist for each concentration of disclosed compound. The EC50 values for the agonist at each concentration of compound are determined by non-linear curve fitting. A decrease in the EC50 value of the agonist with increasing concentrations of the sample compound (a leftward shift of the agonist concentration-response curve) is an indication of the degree of mGluR4 potentiation at a given concentration of the sample compound. A decrease in the maximal response of the agonist with increasing concentrations of the sample compounds, with or without a rightward shift in agonist potency, is an indication of the degree of noncompetitive antagonism at mGluR4. The second mode also indicates whether the sample compounds also affect the maximum response to mGluR4 to agonists.
# human mGluR4, sequence (Q14833 33-912): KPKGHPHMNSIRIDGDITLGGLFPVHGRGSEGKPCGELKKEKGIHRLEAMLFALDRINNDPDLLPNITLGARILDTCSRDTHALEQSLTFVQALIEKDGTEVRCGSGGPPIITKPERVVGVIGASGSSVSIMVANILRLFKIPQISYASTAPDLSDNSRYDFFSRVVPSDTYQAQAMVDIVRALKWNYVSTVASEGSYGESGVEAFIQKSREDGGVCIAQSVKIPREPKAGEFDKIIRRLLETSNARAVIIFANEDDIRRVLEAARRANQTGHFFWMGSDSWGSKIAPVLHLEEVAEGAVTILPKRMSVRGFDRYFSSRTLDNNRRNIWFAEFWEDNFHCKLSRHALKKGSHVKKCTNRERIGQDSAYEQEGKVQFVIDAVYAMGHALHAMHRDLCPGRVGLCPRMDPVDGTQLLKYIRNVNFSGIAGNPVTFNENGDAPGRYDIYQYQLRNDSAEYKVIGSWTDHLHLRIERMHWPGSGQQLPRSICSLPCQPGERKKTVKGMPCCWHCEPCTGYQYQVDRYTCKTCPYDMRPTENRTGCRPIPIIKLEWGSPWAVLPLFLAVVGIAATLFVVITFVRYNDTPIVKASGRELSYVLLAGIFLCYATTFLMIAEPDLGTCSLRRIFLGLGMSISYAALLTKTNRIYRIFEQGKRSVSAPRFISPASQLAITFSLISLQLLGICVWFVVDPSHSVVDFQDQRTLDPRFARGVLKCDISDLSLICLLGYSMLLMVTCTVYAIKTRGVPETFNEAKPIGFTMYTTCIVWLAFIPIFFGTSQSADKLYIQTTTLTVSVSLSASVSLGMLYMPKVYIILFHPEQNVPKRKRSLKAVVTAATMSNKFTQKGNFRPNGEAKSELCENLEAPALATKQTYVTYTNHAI
row,EC50,SMILES
1,1020 nM,"Clc1cc(Nc2n[nH]c3cccnc23)cnc1Cl [Example 47, N-(5,6-dichloropyridin-3-yl)-1H-pyrazolo[4,3-b]pyridin-3-amine]"
2,6440 nM,"CNc1ncc(Nc2n[nH]c3cccnc23)cc1Cl [Example 48, 3-chloro-N2-methyl-N5-(1H-pyrazolo[4,3-b]pyridin-3-yl)pyridine-2,5-diamine]"
3,5300 nM,"c1cnc2c(NCC3CCCCC3)n[nH]c2c1 [Example 49, N-(cyclohexylmethyl)-1H-pyrazolo[4,3-b]pyridin-3-amine]"
4,17300 nM,"Clc1cccc(CNc2n[nH]c3cccnc23)c1 [Example 50, N-(3-chlorobenzyl)-1H-pyrazolo[4,3-b]pyridin-3-amine]"
5,7080 nM,"Fc1ccc(CNc2n[nH]c3cccnc23)cc1Cl [Example 51, N-(3-chloro-4-fluorobenzyl)-1H-pyrazolo[4,3-b]pyridin-3-amine]"
6,112 nM,"Clc1cc(Nc2n[nH]c3cccnc23)ccc1Oc1ccccn1 [Example 52, N-(3-chloro-4-(pyridin-2-yloxy)phenyl)-1H-pyrazolo[4,3-b]pyridin-3-amine]"
7,3590 nM,"Cn1ccc2ccc(Nc3n[nH]c4cccnc34)cc21 [Example 53, N-(1-methyl-1H-indol-6-yl)-1H-pyrazolo[4,3-b]pyridin-3-amine]"
8,> 10000 nM,"CN1C(=O)COc2cc(Nc3n[nH]c4cccnc34)ccc21 [Example 54, 7-((1H-pyrazolo[4,3-b]pyridin-3-yl)amino)-4-methyl-2H-benzo[b][1,4]oxazin-3(4H)-one]"
9,8140 nM,"CN1C(=O)COc2ccc(Nc3n[nH]c4cccnc34)cc21 [Example 55, 6-((1H-pyrazolo[4,3-b]pyridin-3-yl)amino)-4-methyl-2H-benzo[b][1,4]oxazin-3(4H)-one]"
10,7860 nM,"CS(=O)(=O)c1ccc(Nc2n[nH]c3cccnc23)cc1Cl [Example 56, N-(3-chloro-4-(methylsulfonyl)phenyl)-1H-pyrazolo[4,3-b]pyridin-3-amine]"
11,782 nM,"Fc1cc(F)c(F)c(Nc2n[nH]c3cccnc23)c1 [Example 57, N-(2,3,5-trifluorophenyl)-1H-pyrazolo[4,3-b]pyridin-3-amine]"
12,11500 nM,"CS(=O)(=O)c1ccc(Nc2n[nH]c3cccnc23)cc1F [Example 58, N-(3-fluoro-4-(methylsulfonyl)phenyl)-1H-pyrazolo[4,3-b]pyridin-3-amine]"
13,11900 nM,"Cn1nc2cccnc2c1Nc1ccc(F)c(Cl)c1 [Example 59, N-(3-chloro-4-fluorophenyl)-2-methyl-2H-pyrazolo[4,3-b]pyridin-3-amine]"
14,2580 nM,"CCc1cccc(Nc2n[nH]c3cccnc23)c1 [Example 60, N-(3-ethylphenyl)-1H-pyrazolo[4,3-b]pyridin-3-amine]"
15,7930 nM,"CC(C)(C)c1cccc(Nc2n[nH]c3cccnc23)c1 [Example 61, N-(3-(tert-butyl)phenyl)-1H-pyrazolo[4,3-b]pyridin-3-amine]"
16,217 nM,"Fc1cc(Nc2n[nH]c3cccnc23)cc(C(F)(F)F)c1 [Example 62, N-(3-fluoro-5-(trifluoromethyl)phenyl)-1H-pyrazolo[4,3-b]pyridin-3-amine]"
17,8340 nM,"CC1Oc2ccc(Nc3n[nH]c4cccnc34)cc2N(C)C1=O (stereo not drawn) [Example 63, 6-((1H-pyrazolo[4,3-b]pyridin-3-yl)amino)-2,4-dimethyl-2H-benzo[b][1,4]oxazin-3(4H)-one]"
18,351 nM,"O=C(c1ccccc1)c1ccc(Nc2n[nH]c3cccnc23)cc1Cl [Example 64, (4-((1H-pyrazolo[4,3-b]pyridin-3-yl)amino)-2-chlorophenyl)(phenyl)methanone]"
19,1420 nM,"Fc1ccc(Nc2n[nH]c3cccnc23)cc1 [Example 65, N-(4-fluorophenyl)-1H-pyrazolo[4,3-b]pyridin-3-amine]"
20,108 nM,"Clc1cc(Nc2n[nH]c3cccnc23)ccc1Oc1cnccn1 [Example 66, N-(3-chloro-4-(pyrazin-2-yloxy)phenyl)-1H-pyrazolo[4,3-b]pyridin-3-amine]"
21,3050 nM,"FC(F)(F)c1cc(Nc2n[nH]c3cccnc23)cc(C(F)(F)F)c1 [Example 67, N-(3,5-bis(trifluoromethyl)phenyl)-1H-pyrazolo[4,3-b]pyridin-3-amine]"

row,EC50,SMILES
1,113 nM,"Clc1ccc(Nc2n[nH]c3cccnc23)cc1Cl [Example 68, N-(3,4-dichlorophenyl)-1H-pyrazolo[4,3-b]pyridin-3-amine]"
2,43 nM,"Clc1cc(Cl)cc(Nc2n[nH]c3cccnc23)c1 [Example 69, N-(3,5-dichlorophenyl)-1H-pyrazolo[4,3-b]pyridin-3-amine]"
3,32 nM,"Fc1cc(Cl)cc(Nc2n[nH]c3cccnc23)c1 [Example 70, N-(3-chloro-5-fluorophenyl)-1H-pyrazolo[4,3-b]pyridin-3-amine]"
4,385 nM,"Fc1ccc(Nc2n[nH]c3cccnc23)cc1C(F)(F)F [Example 71, N-(4-fluoro-3-(trifluoromethyl)phenyl)-1H-pyrazolo[4,3-b]pyridin-3-amine]"
5,9100 nM,"CS(=O)(=O)c1cc(Nc2n[nH]c3cccnc23)ccc1F [Example 72, N-(4-fluoro-3-(methylsulfonyl)phenyl)-1H-pyrazolo[4,3-b]pyridin-3-amine]"
6,349 nM,"Oc1ccc(Nc2n[nH]c3cccnc23)cc1F [Example 73, 4-((1H-pyrazolo[4,3-b]pyridin-3-yl)amino)-2-fluorophenol]"
7,2760 nM,"Fc1cc(Nc2n[nH]c3cccnc23)ccc1Oc1ncccn1 [Example 74, N-(3-fluoro-4-(pyrimidin-2-yloxy)phenyl)-1H-pyrazolo[4,3-b]pyridin-3-amine]"
8,497 nM,"Fc1cc(Nc2n[nH]c3cccnc23)ccc1Oc1cc(C(F)(F)F)ccn1 [Example 75, N-(3-fluoro-4-((4-(trifluoromethyl)pyridin-2-yl)oxy)phenyl)-1H-pyrazolo[4,3-b]pyridin-3-amine]"
9,151 nM,"Fc1cc(Nc2n[nH]c3cccnc23)ccc1Oc1ccc(Cl)cn1 [Example 76, N-(4-((5-chloropyridin-2-yl)oxy)-3-fluorophenyl)-1H-pyrazolo[4,3-b]pyridin-3-amine]"
10,88 nM,"Clc1cccc(Oc2ccc(Nc3n[nH]c4cccnc34)cc2Cl)n1 [Example 77, N-(3-chloro-4-((6-chloropyridin-2-yl)oxy)phenyl)-1H-pyrazolo[4,3-b]pyridin-3-amine]"
11,410 nM,"Cc1ccc(Cl)cc1Nc1n[nH]c2cccnc12 [Example 78, N-(5-chloro-2-methylphenyl)-1H-pyrazolo[4,3-b]pyridin-3-amine]"
12,342 nM,"Fc1cc(F)c(Nc2n[nH]c3cccnc23)cc1Cl [Example 79, N-(5-chloro-2,4-difluorophenyl)-1H-pyrazolo[4,3-b]pyridin-3-amine]"
13,146 nM,"Fc1cc(Nc2n[nH]c3cccnc23)cc(F)c1F [Example 80, N-(3,4,5-trifluorophenyl)-1H-pyrazolo[4,3-b]pyridin-3-amine]"
14,1540 nM,"Clc1ccc(Oc2ccc(Nc3n[nH]c4cccnc34)cc2Cl)cc1 [Example 81, N-(3-chloro-4-(4-chlorophenoxy)phenyl)-1H-pyrazolo[4,3-b]pyridin-3-amine]"
15,68 nM,"Cc1cc(Nc2n[nH]c3cccnc23)ccc1F [Example 82, N-(4-fluoro-3-methylphenyl)-1H-pyrazolo[4,3-b]pyridin-3-amine]"
16,165 nM,"Cc1ccc(Nc2n[nH]c3cccnc23)cc1Cl [Example 83, N-(3-chloro-4-methylphenyl)-1H-pyrazolo[4,3-b]pyridin-3-amine]"
17,314 nM,"Cc1ccc(F)c(Nc2n[nH]c3cccnc23)c1 [Example 84, N-(2-fluoro-5-methylphenyl)-1H-pyrazolo[4,3-b]pyridin-3-amine]"
18,101 nM,"Fc1cc(F)cc(Nc2n[nH]c3cccnc23)c1 [Example 85, N-(3,5-difluorophenyl)-1H-pyrazolo[4,3-b]pyridin-3-amine]"
19,8010 nM,"CN(c1cccc(Cl)c1)c1n[nH]c2cccnc12 [Example 86, N-(3-chlorophenyl)-N-methyl-1H-pyrazolo[4,3-b]pyridin-3-amine]"
20,426 nM,"Clc1cc(Nc2n[nH]c3cccnc23)ccc1OCc1ccccc1 [Example 87, N-(4-(benzyloxy)-3-chlorophenyl)-1H-pyrazolo[4,3-b]pyridin-3-amine]"
21,311 nM,"O=C(c1ccccc1F)c1ccc(Nc2n[nH]c3cccnc23)cc1Cl [Example 88, (4-((1H-pyrazolo[4,3-b]pyridin-3-yl)amino)-2-chlorophenyl)(2-fluorophenyl)methanone]"
